{
  "source": "patent US20250198977A1",
  "about": "“DETECTION METHOD, DRIED ALGAE MANUFACTURING METHOD, DRIED ALGAE, AND DRIED ALGAE QUALITY MANAGEMENT METHOD” (priority 2022, published 2025)",
  "key": {"[1]": {"test_system": "L-dried matter of Raphidocelis subcapitata NIES-35", "assay": "Detection of chemical substances by delayed luminescence (DFI) of rehydrated L-dried matter", "format": "cell-based", "description": "(§1) Various kinds of the L-dried matter obtained in the above-described cryo vial, and test water (water containing the chemical substances listed below at the concentrations (w/v) shown in Table 7) were prepared.\n(§2) (metal mixed solution which was prepared by simulation based on formulation of a rock eluate from a core sample collected during a survey voyage of “Chikyu” by the Japan Agency for Marine-Earth Science and Technology; mainly containing lead and zinc (Yamagishi et al. Ecotoxicology (2018) 27:1303-1309)) • Copper • Zinc • Lead • Arsenic: in NIES-35, NIES-969, and NIES-2885, test water containing As(V) at 1 ppm (w/v) was also used for examination.\n(§3) In a case of tests using freshwater algae, distilled water was used as the test water or control water, and in a case of tests using marine algae, filtered and sterilized seawater was used as the test water or control water.\n(§4) Using a cuvette as a measurement container, 100 μL of the above-described cell suspension was dried to obtain 1 unit of the L-dried matter, and resuspended (rehydrated) in 3.5 mL of test water or control water.\n(§5) After the rehydration, the L-dried matter and the test water or control water were rapidly and thoroughly mixed by pipetting to obtain a measurement sample (measurement object).\n(§6) The sample was set in a weak luminescence measurement device (manufactured by Hamamatsu Photonics K.K., weak luminescence coefficient device, Type-7100). After exposure with excitation light from a light source attached to the device, delayed luminescence was measured immediately after a point of time of the rehydration (within 30 seconds), 15 minutes later, 30 minutes later, 60 minutes later, and 90 minutes later. The measurement time for each delayed luminescence was set to 10 seconds.\n(§7) The sum of amounts of delayed luminescence (photon count) measured over 10 seconds was calculated and defined as the delayed fluorescence integral (DFI). In addition, for the sample after the rehydration, an absorbance at a wavelength of 600 nm with an optical path length of 1 cm was simultaneously measured. The DFI value per cell number of the L-dried matter was obtained by dividing the DFI by the value (DFI/OD600)."}, "[2]": {"test_system": "L-dried matter of Cyanobium sp. NIES-981", "assay": "Detection of chemical substances by delayed luminescence (DFI) of rehydrated L-dried matter", "format": "cell-based", "description": "as §1, §2, §3, §4, §5, §6, §7"}, "[3]": {"test_system": "L-dried matter of Prochlorococcus sp. NIES-2885", "assay": "Detection of chemical substances by delayed luminescence (DFI) of rehydrated L-dried matter", "format": "cell-based", "description": "as §1, §2, §3, §4, §5, §6, §7"}, "[4]": {"test_system": "L-dried matter of Synechococcus sp. NIES-969", "assay": "Detection of chemical substances by delayed luminescence (DFI) of rehydrated L-dried matter", "format": "cell-based", "description": "as §1, §2, §3, §4, §5, §6, §7"}, "[5]": {"test_system": "L-dried matter of NIES-35", "assay": "Quality evaluation of stored L-dried matter with DCMU", "format": "cell-based, Raphidocelis subcapitata", "conditions": "DCMU 1 μM, after 15 minutes", "description": "The L-dried matter stored at 4° C. for 2 weeks was compared with the L-dried matter stored at 37° C. for 2 weeks (accelerated deterioration product). In each case, DCMU was added to the L-dried matter of NIES-35 at the same time as the rehydration, such that the final concentration was 1 μM (DCMU addition group), and the delayed luminescence after 15 minutes was measured. In addition, the delayed luminescence was measured in the control (non-addition group) in which DCMU was not added, following the same procedure."}, "[6]": {"test_system": "L-dried matter of NIES-35", "assay": "Detectable concentration by significant difference test, 15 min exposure of L-dried matter", "format": "cell-based, Raphidocelis subcapitata", "conditions": "exposed for 15 minutes", "from_the_text": "The concentration of HA corresponds to a 100 million-fold dilution of a commercially available stock solution."}, "[7]": {"test_system": "L-dried matter of NIES-981 on filter", "assay": "Detection test for DCMU using L-dried matter on a filter", "format": "cell-based, Cyanobium sp.", "conditions": "DCMU 1 μM; 5 minutes after exposure; *P<0.01, N=4", "description": "25 to 50 mL of a culture solution of NIES-981 was passed through a filter (Whatman GF/F glass fiber filter paper (diameter: 47 mm)) set in a filtration unit, capturing the cells on the filter. After the filtration, 1 mL of a protective medium (Table 6) was immediately added dropwise onto the filter. The filter on which the cells were captured was subjected to low-temperature vacuum drying for 1 to 2 hours using a low-temperature vacuum drying device (manufactured by Forest Technology Systems Ltd., FLEXI-DRY) capable of performing L-drying. Subsequent steps were performed in the same manner as in the preparation of the L-dried sample in the vial described above, thereby obtaining L-dried matter of algae on the filter (FIG. 8).\nThe L-dried matter obtained on the filter was exposed to seawater or test water containing DCMU at a concentration of 1 μM, and the delayed luminescence was measured 5 minutes after the exposure."}, "[8]": {"test_system": "same type of biocyanobacteria", "assay": "24-hour exposure test on the same type of cyanobacteria", "format": "cell-based", "conditions": "different bioassay method", "description": "In a case where the half-effective concentration (EC50) was calculated, the zinc was 0.05 ppm (w/v) (FIG. 11) and the Cy metal mixed solution was 0.7% (w/v) (FIG. 12). Although it is not possible to simply compare the values because the values were obtained by different bioassay methods, the EC50 value during the zinc exposure was 0.07 ppm in a case where the 24-hour exposure test was performed on the same type of biocyanobacteria, and the EC50 value was similar to this value."}, "[9]": {"test_system": "L-dried matter of NIES-981", "assay": "Estimation of half-effective concentration (EC50) from delayed luminescence dose-response curve", "format": "cell-based, Cyanobium sp.", "conditions": "exposed simultaneously with rehydration; delayed luminescence after 15 minutes", "description": "A dose-response curve of the L-dried matter with respect to a representative metal was created, and a half-effective concentration (EC50) was estimated. For the L-dried matter of NIES-981, zinc at 0 to 1 ppm (w/v) or Cy metal mixed solution at 0 to 10% (w/v) was exposed simultaneously with rehydration. After 15 minutes, the delayed luminescence was measured, and a dose-response curve was created."}, "[10]": {"test_system": "L-dried matter of NIES-35", "assay": "Detection test for ammonia nitrogen using L-dried matter", "format": "cell-based, Raphidocelis subcapitata", "conditions": "60 minutes after addition; T-test, P<0.05, N=3", "description": "To the L-dried matter of NIES-35 obtained in the cryo vial, a sample containing ammonia nitrogen at a concentration shown in FIG. 10 was added, and the delayed luminescence was measured 60 minutes after the addition."}, "[11]": {"conditions": "Pb^2+ 1 ppm, first value → later value"}, "[12]": {"conditions": "Zn^2+ 0.5 ppm, first value → later value"}},
  "data": [
    {"compound": "[Cu+2]", "note": "[Cu^2+, Copper]", "values": [
      {"measurement": "comparison with control group (DFI value)", "setting": "[1]; Cu^2+ 1 ppm", "result": "lower"},
      {"measurement": "comparison with control group (DFI value)", "setting": "[2]; Cu^2+ 1 ppm", "result": "higher"},
      {"measurement": "comparison with control group (DFI value)", "setting": "[3]; Cu^2+ 1 ppm", "result": "lower"},
      {"measurement": "comparison with control group (DFI value)", "setting": "[4]; Cu^2+ 1 ppm", "result": "lower"}
    ]},
    {"compound": "CN(C)C(=O)Nc1ccc(Cl)c(Cl)c1", "note": "[DCMU, 3-(3,4-dichlorophenyl)-1,1-dimethylurea, reference compound]", "values": [
      {"measurement": "comparison with control group (DFI value)", "setting": "[1]; DCMU 1 μM", "result": "higher"},
      {"measurement": "comparison with control group (DFI value)", "setting": "[2]; DCMU 1 μM", "result": "higher"},
      {"measurement": "comparison with control group (DFI value)", "setting": "[3]; DCMU 1 μM, first value → later value", "result": "higher"},
      {"measurement": "comparison with control group (DFI value)", "setting": "[4]; DCMU 1 μM", "result": "higher"},
      {"measurement": "delayed luminescence, DCMU-added group versus non-addition group", "setting": "[5]; L-dried matter stored at 4° C. for 2 weeks", "result": "a difference was observed"},
      {"measurement": "delayed luminescence, DCMU-added group versus non-addition group", "setting": "[5]; L-dried matter stored at 37° C. for 2 weeks", "result": "no significant difference was observed"},
      {"measurement": "detectable concentration (significant difference test)", "setting": "[6]", "result": "≤ 0.1", "unit": "µM"},
      {"measurement": "detectable concentration (significant difference test)", "setting": "[6]; conversion of 0.1 μM", "result": "approximately 0.02 ppm"},
      {"measurement": "amount of delayed luminescence, DCMU versus seawater", "setting": "[7]", "result": "significant difference"}
    ]},
    {"compound": "NO", "note": "[HA, Hydroxylamine, reference compound]", "values": [
      {"measurement": "comparison with control group (DFI value)", "setting": "[1]; HA 50 μM", "result": "lower"},
      {"measurement": "comparison with control group (DFI value)", "setting": "[2]; HA 50 μM", "result": "lower"},
      {"measurement": "comparison with control group (DFI value)", "setting": "[3]; HA 50 μM", "result": "lower"},
      {"measurement": "comparison with control group (DFI value)", "setting": "[4]; HA 50 μM", "result": "lower"},
      {"measurement": "detectable concentration (significant difference test)", "setting": "[6]", "result": "≤ 0.0005", "unit": "µM"}
    ]},
    {"compound": "[Pb+2]", "note": "[Pb^2+, Lead]", "values": [
      {"measurement": "comparison with control group (DFI value)", "setting": "[1]; Pb^2+ 1 ppm", "result": "higher"},
      {"measurement": "comparison with control group (DFI value)", "setting": "[2]; Pb^2+ 1 ppm", "result": "higher"},
      {"measurement": "comparison with control group (DFI value)", "setting": "[3]; [11]", "result": "lower"},
      {"measurement": "comparison with control group (DFI value)", "setting": "[4]; [11]", "result": "lower"}
    ]},
    {"compound": "[Zn+2]", "note": "[Zn^2+, Zinc]", "values": [
      {"measurement": "comparison with control group (DFI value)", "setting": "[1]; Zn^2+ 0.5 ppm", "result": "higher"},
      {"measurement": "comparison with control group (DFI value)", "setting": "[1]; Zn^2+ 1 ppm", "result": "higher"},
      {"measurement": "comparison with control group (DFI value)", "setting": "[2]; Zn^2+ 0.5 ppm", "result": "higher"},
      {"measurement": "comparison with control group (DFI value)", "setting": "[2]; Zn^2+ 1 ppm", "result": "higher"},
      {"measurement": "comparison with control group (DFI value)", "setting": "[3]; [12]", "result": "lower"},
      {"measurement": "comparison with control group (DFI value)", "setting": "[3]; Zn^2+ 1 ppm, first value → later value", "result": "lower"},
      {"measurement": "comparison with control group (DFI value)", "setting": "[4]; [12]", "result": "lower"},
      {"measurement": "comparison with control group (DFI value)", "setting": "[4]; Zn^2+ 1 ppm", "result": "lower"},
      {"measurement": "EC50 value during the zinc exposure", "setting": "[8]", "result": 0.07, "unit": "ppm"},
      {"measurement": "half-effective concentration (EC50)", "setting": "[9]", "result": "0.05 ppm (w/v)"}
    ]},
    {"compound": "ammonia nitrogen [NH4—N]", "values": [
      {"measurement": "concentration at which a significant difference in the amount of delayed luminescence was confirmed", "setting": "[10]", "result": "≥ 10", "unit": "mg/L"}
    ]}
  ]
}
